Results taken from ChEMBL document CHEMBL1795204 (2011).
Activity calls are given as the source filed them. No cut-off for these calls is given here.

Tested on: Haemonchus contortus
Assay: Anthelmintic activity against Haemonchus contortus McMaster by larvel development assay
Type: functional

For `CCCCc1ccc2nc(-c3ccc(OCCOC)cc3)cn2n1`, which LD99 is on record?
Its LD99 is 1.92 µM.

Which LD99 does the source give for `CCCOc1ccc2nc(-c3ccc(OCCOC)cc3)c(Br)n2n1` here?
The LD99 was 0.03 µM.

With `CCOc1ccc(-c2cn3nc(OCC4CC4)ccc3n2)cc1` as the molecule, how does the LD99 read?
Its LD99 is 0.09 µM.

With `CCCOc1ccc2nc(-c3ccc(OCCOC)cc3)c(I)n2n1` as the molecule, how does the LD99 read?
The LD99 was 0.03 µM.

For `CCCOc1nn2cc(-c3ccc(OCC)cc3)nc2cc1C`, which LD99 is on record?
Its LD99 is 0.6 µM.

`CCOCCOc1ccc(-c2cn3nc(OCC4CC4)ccc3n2)cc1` was tested. Which LD99 did it give?
The LD99 was 0.11 µM.

How did the LD99 turn out when `CCCOc1ccc2nc(-c3ccc(OCCOC)cc3)c(C)n2n1` was run?
The LD99 was 0.32 µM.

With `CCCSc1ccc2nc(-c3ccc(OCCOC)c(OC)c3)cn2n1` as the molecule, how does the LD99 read?
The LD99 was 2.17 µM.

With `COCCOc1ccc(-c2nc3ccc(OCC4CC4)nn3c2Br)cc1` as the molecule, how does the LD99 read?
The LD99 was 0.1 µM.

For `FC(F)(F)c1ccc(-c2cn3nc(OCC4CC4)ccc3n2)cc1`, which LD99 is on record?
Its LD99 is “inactive”.

Which LD99 does the source give for `CCCSc1ccc2nc(-c3ccc(OCCOC)cc3)cn2n1` here?
The LD99 was 2.36 µM.

Which LD99 does the source give for `COCCOc1ccc(-c2cn3nc(OC(C)C)ccc3n2)cc1` here?
Its LD99 is 4.96 µM.

With `CCCOc1ccc2nc(-c3ccc(OCCOC)cc3)cn2n1` as the molecule, how does the LD99 read?
The LD99 was 0.29 µM.

`COCCOc1ccc(-c2cn3nc(OCC4CC4)ccc3n2)cc1` was tested. Which LD99 did it give?
Its LD99 is 0.11 µM.

With `CCCCSc1ccc2nc(-c3ccc(OCCOCC)cc3)cn2n1` as the molecule, how does the LD99 read?
Its LD99 is 0.59 µM.

For `COCCOc1ccc(-c2cn3nc(SC(C)C)ccc3n2)cc1`, which LD99 is on record?
The LD99 was 0.59 µM.

With `CCCCSc1ccc2nc(-c3ccc(C(F)(F)F)cc3)cn2n1` as the molecule, how does the LD99 read?
The LD99 was “inactive”.

`COCCOc1ccc(-c2nc3ccc(OCc4ccccc4)nn3c2Cl)cc1` was tested. Which LD99 did it give?
The LD99 was “inactive”.

For `CCCOc1nn2cc(-c3ccc(OCCOC)cc3)nc2c2ccccc12`, which LD99 is on record?
The LD99 was 0.91 µM.

For `CCCSc1ccc2nc(-c3ccc(OCCOC)c(OC)c3)c(Br)n2n1`, which LD99 is on record?
The LD99 was 1.66 µM.

`CCCCOc1ccc2nc(-c3ccc(OCCOC)cc3)cn2n1` was tested. Which LD99 did it give?
Its LD99 is 0.64 µM.

For `CCCSc1ccc2nc(-c3ccc(Cl)cc3Cl)cn2n1`, which LD99 is on record?
The LD99 was “inactive”.

`COCCOc1ccc(-c2cn3nc(OCCOC)ccc3n2)cc1` was tested. Which LD99 did it give?
Its LD99 is 17.47 µM.

With `COCCOc1ccc(-c2cn3nc(-c4ccsc4)ccc3n2)cc1` as the molecule, how does the LD99 read?
Its LD99 is 1.96 µM.

For `CCCSc1ccc2nc(-c3ccc(OCC)cc3)cn2n1`, which LD99 is on record?
Its LD99 is 1.21 µM.

Which LD99 does the source give for `CCCOc1ccc2nc(-c3ccc(OCCOC)cc3)c(Cl)n2n1` here?
The LD99 was 0.06 µM.

With `COCCOc1ccc(-c2cn3nc(-c4ccccc4)ccc3n2)cc1` as the molecule, how does the LD99 read?
Its LD99 is 8.11 µM.

Which LD99 does the source give for `CCCNc1ccc2nc(-c3ccc(OCCOC)cc3)cn2n1` here?
The LD99 was 2.11 µM.

How did the LD99 turn out when `CCCOc1nn2cc(-c3ccc(OCCOC)c(OC)c3)nc2cc1C` was run?
Its LD99 is 0.32 µM.

With `CCCOc1ccc2nc(-c3ccccc3)cn2n1` as the molecule, how does the LD99 read?
The LD99 was “inactive”.

For `CCc1ccc(-c2cn3nc(OCC4CC4)ccc3n2)cc1`, which LD99 is on record?
The LD99 was 0.27 µM.

How did the LD99 turn out when `COCCOc1cccc(-c2nc3ccc(OC(C)C)nn3c2C)c1` was run?
Its LD99 is 14.65 µM.

With `CCCCN(C)c1ccc2nc(-c3ccc(OCCOC)cc3)cn2n1` as the molecule, how does the LD99 read?
The LD99 was 2.29 µM.

For `CCCOc1ccc2nc(-c3ccc(OCCOC)c(OC)c3)c(C#N)n2n1`, which LD99 is on record?
The LD99 was “inactive”.

How did the LD99 turn out when `CCCOc1ccc2nc(-c3ccc4c(c3)OCO4)cn2n1` was run?
Its LD99 is 0.77 µM.

With `CCCOc1ccc2nc(-c3ccc(OCCOC)c(OC)c3)cn2n1` as the molecule, how does the LD99 read?
The LD99 was 2.27 µM.

`CCCOc1ccc2nc(-c3ccc(OCCOCC)cc3)cn2n1` was tested. Which LD99 did it give?
The LD99 was 0.32 µM.

With `CCCOc1ccc2nc(-c3ccc(Cl)cc3)cn2n1` as the molecule, how does the LD99 read?
The LD99 was 13.03 µM.

Which LD99 does the source give for `CCCOc1ccc2nc(-c3cccc(OC)c3)cn2n1` here?
The LD99 was 0.81 µM.

Which LD99 does the source give for `CCCCSc1ccc2nc(-c3ccc(OCCOC)cc3)cn2n1` here?
Its LD99 is 0.26 µM.

For `COCCOc1ccc(-c2cn3ncccc3n2)cc1`, which LD99 is on record?
Its LD99 is “inactive”.

IVERMECTIN was tested. Which LD99 did it give?
Its LD99 is 0.006 µM.

For `COCCOc1ccc(-c2cn3nc(OC4CCCC4)ccc3n2)cc1`, which LD99 is on record?
The LD99 was 5.31 µM.

For `CCCOc1ccc2nc(-c3ccc(OC)c(OC)c3)cn2n1`, which LD99 is on record?
Its LD99 is 4.15 µM.

`CCCOc1nn2cc(-c3ccc(OCC)cc3)nc2c2ccccc12` was tested. Which LD99 did it give?
The LD99 was 1.8 µM.

With `CCCSc1ccc2nc(-c3cccc(OC)c3)cn2n1` as the molecule, how does the LD99 read?
Its LD99 is 2.1 µM.

How did the LD99 turn out when `CCCOc1ccc2nc(-c3ccc(OCCOC)cc3)c(C#N)n2n1` was run?
Its LD99 is 0.11 µM.

How did the LD99 turn out when `CCCOc1ccc2nc(-c3ccc(OCCOC)cc3)c(-c3ccccc3)n2n1` was run?
Its LD99 is 9.29 µM.

With `CCOCCOc1ccc(-c2cn3nc(SCC(C)C)ccc3n2)cc1` as the molecule, how does the LD99 read?
The LD99 was 0.87 µM.

`Clc1ccc(-c2cn3nc(OCC4CC4)ccc3n2)c(Cl)c1` was tested. Which LD99 did it give?
Its LD99 is “inactive”.

`c1ccc([C@H]2CN3CCSC3=N2)cc1` [LEVAMISOLE] was tested. Which LD99 did it give?
The LD99 was 0.66 µM.

With `CCCOc1ccc2nc(-c3ccc4c(c3)OCCO4)cn2n1` as the molecule, how does the LD99 read?
Its LD99 is 2.6 µM.

`CCOc1ccc2nc(-c3ccc(OCCOC)cc3)cn2n1` was tested. Which LD99 did it give?
Its LD99 is 1.3 µM.

Which LD99 does the source give for `CCCOc1ccc2nc(-c3ccc(OCCOC)c(OC)c3)c(I)n2n1` here?
The LD99 was 10.35 µM.

`COCCOc1cccc(-c2nc3ccc(SC(C)C)nn3c2C)c1` was tested. Which LD99 did it give?
The LD99 was 19.58 µM.

For `COCCOc1ccc(-c2cn3nc(N4CCCC4)ccc3n2)cc1`, which LD99 is on record?
The LD99 was 9.6 µM.

How did the LD99 turn out when `CCCOc1ccc2nc(-c3cccc(OCCOC)c3)c(C)n2n1` was run?
Its LD99 is 5.49 µM.

Tested on: Haemonchus contortus
Assay: Anthelmintic activity against benzimidazole-resistant Haemonchus contortus VRSG
Type: functional

Which LD99 does the source give for `CCCOc1ccc2nc(-c3ccc4c(c3)OCO4)cn2n1` here?
The LD99 was 0.94 µM.

Tested on: Haemonchus contortus
Assay: Anthelmintic activity against benzimidazole and Levamisole-resistant Haemonchus contortus Lawes
Type: functional

With `CCCOc1ccc2nc(-c3ccc4c(c3)OCO4)cn2n1` as the molecule, how does the LD99 read?
Its LD99 is 0.67 µM.

Tested on: Teladorsagia circumcincta
Assay: Anthelmintic activity against Ostertagia circumcincta
Type: functional

For `CCCOc1ccc2nc(-c3ccc4c(c3)OCO4)cn2n1`, which LD99 is on record?
Its LD99 is 0.33 µM.

Tested on: Trichostrongylus colubriformis
Assay: Anthelmintic activity against Trichostrongylus colubriformis McMaster
Type: functional

How did the LD99 turn out when `CCCOc1ccc2nc(-c3ccc4c(c3)OCO4)cn2n1` was run?
The LD99 was 0.67 µM.

Tested on: Haemonchus contortus
Assay: Anthelmintic activity against Ivermectin-resistant Haemonchus contortus CAVR
Type: functional

`CCCOc1ccc2nc(-c3ccc4c(c3)OCO4)cn2n1` was tested. Which LD99 did it give?
The LD99 was 1.85 µM.
